Reference: ChEMBL document CHEMBL5034014, “Melanocortin 1 Receptor Agonists Based on a Bivalent, Bicyclic Peptide Framework” (J Med Chem, 2021)
Bridge positions count the residues as written; N and C are the ends. Square brackets hold non-standard residues; d marks the D form. Peptide text beside a SMILES is read from it. NMeW = CN[C@@H](Cc1c[nH]c2ccccc12)C(=O)O; NMeR = CN[C@@H](CCCNC(=N)N)C(=O)O

Key:
[1] = molecular target: Melanocortin receptor 5 (Homo sapiens, UniProt P33032); experiment: Displacement of [125I]-NDP-alpha-MSH from human MC5R expressed in HEK2936E cell membrane measured after 16-23 hrs by 1450 microbeta trilux scintillation proximity assay; format: cell membranes
[2] = molecular target: T1, Melanocyte-stimulating hormone receptor (Homo sapiens, UniProt Q01726); experiment: Displacement of [125I]-NDP-alpha-MSH from human MC1R expressed in HEK2936E cell membrane measured after 16-23 hrs by 1450 microbeta trilux scintillation proximity assay; format: cell membranes
[3] = molecular target: T1, Melanocyte-stimulating hormone receptor; experiment: Agonist activity at human melanocortin receptor 1 expressed in human T-Rex-293 cells assessed as stimulation of intracellular cAMP accumulation incubated for 45 mins by LANCE cAMP assay; format: functional, cell-based
[4] = molecular target: T2, Melanocortin receptor 3 (Homo sapiens, UniProt P41968); experiment: Displacement of [125I]-NDP-alpha-MSH from human MC3R expressed in HEK2936E cell membrane measured after 16-23 hrs by 1450 microbeta trilux scintillation proximity assay; format: cell membranes
[5] = molecular target: T3, Melanocortin receptor 4 (Homo sapiens, UniProt P32245); experiment: Agonist activity at human melanocortin receptor 4 expressed in human T-REx-293 cells using high doxycycline assessed as stimulation of intracellular cAMP accumulation incubated for 45 mins by LANCE cAMP assay; format: functional
[6] = molecular target: T3, Melanocortin receptor 4; experiment: Agonist activity at human melanocortin receptor 4 expressed in human T-REx-293 cells using low doxycycline assessed as stimulation of intracellular cAMP accumulation incubated for 45 mins by LANCE cAMP assay; format: functional, cell-based
[7] = molecular target: T2, Melanocortin receptor 3; experiment: Agonist activity at human melanocortin receptor 3 expressed in human T-REx-293 cells assessed as stimulation of intracellular cAMP accumulation incubated for 45 mins by LANCE cAMP assay; format: functional, cell-based
[8] = molecular target: T3, Melanocortin receptor 4; experiment: Displacement of [125I]-NDP-alpha-MSH from human MC4R expressed in HEK2936E cell membrane measured after 16-23 hrs by 1450 microbeta trilux scintillation proximity assay; format: cell membranes

T2 sequence (P41968 whole entry): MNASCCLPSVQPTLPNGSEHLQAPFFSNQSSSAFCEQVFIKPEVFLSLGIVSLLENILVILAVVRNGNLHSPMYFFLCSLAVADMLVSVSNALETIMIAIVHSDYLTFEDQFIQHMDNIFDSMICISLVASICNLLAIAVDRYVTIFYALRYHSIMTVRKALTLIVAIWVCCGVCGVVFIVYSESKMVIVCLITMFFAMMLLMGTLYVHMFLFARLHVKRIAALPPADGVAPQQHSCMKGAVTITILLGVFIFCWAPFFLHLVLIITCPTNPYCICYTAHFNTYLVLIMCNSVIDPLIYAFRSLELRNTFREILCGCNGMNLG
Melanocortin receptor 5, sequence (P33032 whole entry): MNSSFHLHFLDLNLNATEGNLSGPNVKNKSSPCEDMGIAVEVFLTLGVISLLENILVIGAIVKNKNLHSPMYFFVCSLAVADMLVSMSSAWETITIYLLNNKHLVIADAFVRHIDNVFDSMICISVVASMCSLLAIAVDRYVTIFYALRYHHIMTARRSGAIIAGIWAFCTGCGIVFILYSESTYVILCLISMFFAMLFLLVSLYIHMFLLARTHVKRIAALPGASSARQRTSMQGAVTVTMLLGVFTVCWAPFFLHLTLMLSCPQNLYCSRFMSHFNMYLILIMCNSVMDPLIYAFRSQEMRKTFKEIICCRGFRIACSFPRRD
T3 sequence (P32245 whole entry): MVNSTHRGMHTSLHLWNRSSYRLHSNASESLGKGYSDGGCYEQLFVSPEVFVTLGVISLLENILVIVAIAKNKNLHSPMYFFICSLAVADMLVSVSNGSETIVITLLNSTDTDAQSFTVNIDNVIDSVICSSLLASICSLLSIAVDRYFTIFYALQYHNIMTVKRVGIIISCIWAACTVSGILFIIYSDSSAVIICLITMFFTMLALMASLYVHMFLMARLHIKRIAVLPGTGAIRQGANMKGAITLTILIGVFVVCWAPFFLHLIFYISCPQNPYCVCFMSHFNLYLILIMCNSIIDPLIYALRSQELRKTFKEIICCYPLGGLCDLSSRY
T1 sequence (Q01726 whole entry): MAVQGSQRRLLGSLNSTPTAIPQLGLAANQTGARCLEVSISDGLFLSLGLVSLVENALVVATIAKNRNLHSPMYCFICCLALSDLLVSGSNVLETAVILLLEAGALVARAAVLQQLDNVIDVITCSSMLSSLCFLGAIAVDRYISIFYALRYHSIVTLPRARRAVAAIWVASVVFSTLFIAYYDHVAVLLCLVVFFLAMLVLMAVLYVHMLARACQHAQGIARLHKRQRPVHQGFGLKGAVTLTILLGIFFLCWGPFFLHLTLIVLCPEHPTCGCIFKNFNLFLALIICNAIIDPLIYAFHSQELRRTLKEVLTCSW

Question: What does the source list for `CN1C(=O)[C@@H](Cc2ccccc2)NC(=O)[C@H](Cc2c[nH]cn2)NC(=O)CNC(=O)[C@@H]2CSSC[C@H](NC(=O)[C@H](CCCNC(=N)N)NC(=O)[C@@H](CC(=O)O)NC(=O)[C@H](Cc3c[nH]c4ccccc34)NC(=O)[C@@H]1CCCNC(=N)N)C(=O)N[C@@H](Cc1c[nH]cn1)C(=O)N[C@H](Cc1ccccc1)C(=O)N(C)[C@@H](CCCNC(=N)N)C(=O)N(C)[C@@H](Cc1c[nH]c3ccccc13)C(=O)N[C@@H](CCCNC(=N)N)C(=O)N2`?
Answer: IC50 [1]: 1510 nM; Ki [2]: 4.9 nM; EC50 [3]: 0.813 nM; Ki [4]: 148 nM; EC50 [5]: 10.5 nM; EC50 [6]: 490 nM; EC50 [7]: 24 nM; Ki [8]: 158 nM

Question: What does the source list for `CC[C@H](C)[C@@H]1NC(=O)[C@@H]2CCCN2C(=O)[C@H](Cc2c[nH]c3ccccc23)NC(=O)[C@H](CCC(=O)O)NC(=O)[C@@H](Cc2ccccc2)NC(=O)[C@H](Cc2c[nH]cn2)NC(=O)[C@H]([C@@H](C)O)NC(=O)[C@@H]2CSSC[C@H](NC1=O)C(=O)N[C@@H](Cc1c[nH]cn1)C(=O)N[C@H](Cc1ccccc1)C(=O)N(C)[C@@H](CCCNC(=N)N)C(=O)N(C)[C@@H](Cc1c[nH]c3ccccc13)C(=O)N[C@@H](CCCNC(=N)N)C(=O)N2`?
Answer: IC50 [1]: 3090 nM; Ki [2]: 1.29 nM; EC50 [3]: 0.141 nM; Ki [4]: 1740 nM; EC50 [5]: 22.9 nM; EC50 [6]: 398 nM; EC50 [7]: 72.4 nM; Ki [8]: 589 nM

Question: With `CC[C@H](C)[C@@H]1NC(=O)[C@@H]2CCCN2C(=O)[C@H](Cc2c[nH]c3ccccc23)NC(=O)[C@H](CCCNC(=N)N)N(C)C(=O)[C@@H](Cc2ccc3ccccc3c2)NC(=O)[C@@H]2CCCN2C(=O)[C@H](Cc2c[nH]c3ccccc23)NC(=O)[C@@H]2CSSC[C@H](NC1=O)C(=O)N[C@@H](Cc1c[nH]cn1)C(=O)N[C@H](Cc1ccccc1)C(=O)N[C@@H](CCCNC(=N)N)C(=O)N[C@@H](Cc1c[nH]c3ccccc13)C(=O)N[C@@H](C)C(=O)N2` as the compound, how does the IC50 [1] read?
Answer: 204 nM

Question: What about the Ki [2] of the same compound?
Answer: 9.77 nM

Question: What about the EC50 [3] of the same compound?
Answer: 1.55 nM

Question: And the Ki [4]?
Answer: 407 nM

Question: What about the EC50 [5] of the same compound?
Answer: 1.05 nM

Question: And the EC50 [6]?
Answer: 31.6 nM

Question: What about the EC50 [7] of the same compound?
Answer: 13.5 nM

Question: What about the Ki [8] of the same compound?
Answer: 7.94 nM

Question: What does the source list for `CC[C@H](C)[C@@H]1NC(=O)[C@@H]2CCCN2C(=O)[C@H](Cc2c[nH]c3ccccc23)NC(=O)[C@H](CCCNC(=N)N)N(C)C(=O)[C@@H](Cc2ccccc2)NC(=O)[C@H](Cc2c[nH]cn2)NC(=O)[C@H]([C@@H](C)O)NC(=O)[C@@H]2CSSC[C@H](NC1=O)C(=O)N[C@@H](Cc1c[nH]cn1)C(=O)N[C@H](Cc1ccccc1)C(=O)N[C@@H](CCCNC(=N)N)C(=O)N[C@@H](Cc1ccc3ccccc3c1)C(=O)N[C@@H](C)C(=O)N2`?
Answer: IC50 [1]: 89.1 nM; Ki [2]: 0.724 nM; EC50 [3]: > 0.0501 nM; Ki [4]: 50.1 nM; EC50 [5]: 0.275 nM; EC50 [6]: 2.69 nM; EC50 [7]: 2.19 nM; Ki [8]: 8.13 nM

Question: With `CC[C@H](C)[C@@H]1NC(=O)[C@@H]2CCCN2C(=O)[C@H](Cc2c[nH]c3ccccc23)NC(=O)[C@H](CCCNC(=N)N)N(C)C(=O)[C@@H](Cc2ccc3ccccc3c2)NC(=O)[C@@H]2CCCN2C(=O)[C@@H]2CCCN2C(=O)[C@@H]2CSSC[C@H](NC1=O)C(=O)N[C@@H](Cc1c[nH]cn1)C(=O)N[C@H](Cc1ccccc1)C(=O)N[C@@H](CCCNC(=N)N)C(=O)N[C@@H](Cc1c[nH]c3ccccc13)C(=O)N[C@@H](C)C(=O)N2` as the compound, how does the IC50 [1] read?
Answer: 129 nM

Question: And the Ki [2]?
Answer: 3.72 nM

Question: And the EC50 [3]?
Answer: 1.32 nM

Question: And the Ki [4]?
Answer: 100 nM

Question: And the EC50 [7]?
Answer: 15.8 nM

Question: `CC[C@H](C)[C@@H]1NC(=O)[C@@H]2CCCN2C(=O)[C@H](Cc2c[nH]c3ccccc23)NC(=O)[C@H](CCCNC(=N)N)N(C)C(=O)[C@@H](Cc2ccccc2)NC(=O)[C@H](Cc2c[nH]cn2)NC(=O)[C@H]([C@@H](C)O)NC(=O)[C@@H]2CSSC[C@H](NC1=O)C(=O)N[C@@H](Cc1c[nH]cn1)C(=O)N[C@H](Cc1ccccc1)C(=O)N[C@@H](CCCNC(=N)N)C(=O)N[C@@H](Cc1c[nH]c3ccccc13)C(=O)N[C@@H](CCCNC(=N)N)C(=O)N2` was tested. Which IC50 [1] did it give?
Answer: 174 nM

Question: And the Ki [2]?
Answer: 1.12 nM

Question: What about the EC50 [3] of the same compound?
Answer: 0.135 nM

Question: What about the Ki [4] of the same compound?
Answer: 389 nM

Question: And the EC50 [7]?
Answer: 7.76 nM

Question: Which results are given for `C[C@@H]1NC(=O)[C@H](Cc2c[nH]c3ccccc23)NC(=O)[C@H](CCCNC(=N)N)NC(=O)[C@@H](Cc2ccccc2)NC(=O)[C@H](Cc2c[nH]cn2)NC(=O)[C@@H]2CSSC[C@H](NC1=O)C(=O)N[C@@H]([C@@H](C)O)C(=O)N[C@@H](Cc1c[nH]cn1)C(=O)N[C@H](Cc1ccccc1)C(=O)N(C)[C@@H](CCCNC(=N)N)C(=O)N[C@@H](Cc1c[nH]c3ccccc13)C(=O)N1CCC[C@H]1C(=O)N[C@@H](Cc1ccccc1)C(=O)N2`?
Answer: IC50 [1]: 513 nM; Ki [2]: 3.98 nM; EC50 [3]: 0.692 nM; Ki [4]: 302 nM; EC50 [5]: 0.537 nM; EC50 [6]: 6.76 nM; EC50 [7]: 6.61 nM; Ki [8]: 36.3 nM

Question: Which results are given for `C[C@@H]1NC(=O)[C@H](Cc2c[nH]c3ccccc23)NC(=O)[C@H](CCCNC(=N)N)NC(=O)[C@@H](Cc2ccccc2)NC(=O)[C@H](Cc2c[nH]cn2)NC(=O)[C@@H]2CSSC[C@H](NC1=O)C(=O)N[C@@H]([C@@H](C)O)C(=O)N[C@@H](Cc1c[nH]cn1)C(=O)N[C@H](Cc1ccccc1)C(=O)N(C)[C@@H](CCCNC(=N)N)C(=O)N[C@@H](Cc1c[nH]c3ccccc13)C(=O)N1CCC[C@H]1C(=O)N[C@@H](C)C(=O)N2`?
Answer: IC50 [1]: 550 nM; Ki [2]: 8.13 nM; EC50 [3]: 1.07 nM; Ki [4]: 135 nM; EC50 [7]: 4.07 nM

Question: How did the IC50 [1] turn out when `CC[C@H](C)[C@@H]1NC(=O)[C@@H]2CCCN2C(=O)[C@@H]2CCCN2C(=O)[C@H]([C@@H](C)CC)NC(=O)[C@H](CO)NC(=O)[C@H](C)NC(=O)[C@H]([C@@H](C)O)NC(=O)[C@@H]2CSSC[C@H](NC1=O)C(=O)N[C@@H](Cc1c[nH]cn1)C(=O)N[C@H](Cc1ccccc1)C(=O)N(C)[C@@H](CCCNC(=N)N)C(=O)N(C)[C@@H](Cc1c[nH]c3ccccc13)C(=O)N[C@@H](CCCNC(=N)N)C(=O)N2` (cyclo(CTASIPPICH[dF][NMeR][NMeW]R); disulfide 1-9) was run?
Answer: 724 nM

Question: What about the EC50 [3] of the same compound?
Answer: 0.759 nM

Question: What about the Ki [4] of the same compound?
Answer: > 1000 nM

Question: And the EC50 [5]?
Answer: 58.9 nM

Question: And the EC50 [6]?
Answer: > 1000 nM

Question: And the EC50 [7]?
Answer: 129 nM

Question: What about the Ki [8] of the same compound?
Answer: > 1000 nM

Question: For `CC[C@H](C)[C@@H]1NC(=O)[C@@H]2CCCN2C(=O)[C@H](Cc2c[nH]c3ccccc23)NC(=O)[C@H](CCCNC(=N)N)NC(=O)[C@@H](Cc2ccccc2)NC(=O)[C@H](Cc2c[nH]cn2)NC(=O)[C@H]([C@@H](C)O)NC(=O)[C@@H]2CSSC[C@H](NC1=O)C(=O)N[C@@H](Cc1c[nH]cn1)C(=O)N[C@H](Cc1ccccc1)C(=O)N[C@@H](CCCNC(=N)N)C(=O)N[C@@H](Cc1c[nH]c3ccccc13)C(=O)N[C@@H](CCCNC(=N)N)C(=O)N2`, which IC50 [1] is on record?
Answer: 174 nM

Question: And the Ki [2]?
Answer: 1.48 nM

Question: What about the EC50 [3] of the same compound?
Answer: 0.138 nM

Question: And the Ki [4]?
Answer: 269 nM

Question: What about the EC50 [7] of the same compound?
Answer: 17.4 nM

Question: Which IC50 [1] does the source give for `CC[C@H](C)[C@@H]1NC(=O)[C@@H]2CCCN2C(=O)[C@H](Cc2c[nH]c3ccccc23)NC(=O)[C@H](CCCNC(=N)N)N(C)C(=O)[C@@H](Cc2ccccc2)NC(=O)[C@H](Cc2c[nH]cn2)NC(=O)[C@H](CCC(=O)O)NC(=O)[C@@H]2CSSC[C@H](NC1=O)C(=O)N[C@@H](Cc1c[nH]cn1)C(=O)N[C@H](Cc1ccccc1)C(=O)N(C)[C@@H](CCCNC(=N)N)C(=O)N(C)[C@@H](Cc1c[nH]c3ccccc13)C(=O)N[C@@H](CCCNC(=N)N)C(=O)N2` here?
Answer: 380 nM

Question: What about the Ki [2] of the same compound?
Answer: 0.148 nM

Question: And the EC50 [3]?
Answer: 0.0832 nM

Question: And the Ki [4]?
Answer: 105 nM

Question: And the EC50 [5]?
Answer: 2.75 nM

Question: What about the EC50 [6] of the same compound?
Answer: 45.7 nM

Question: And the EC50 [7]?
Answer: 3.55 nM

Question: What about the Ki [8] of the same compound?
Answer: 64.6 nM
